According to publication PMC7274485, “A symbiotic bacterium of shipworms produces a compound with broad spectrum anti-apicomplexan activity” (PLoS Pathogens, 2020):

Columns and labels:
B. bovis = test: Immunofluorescence assay of B. bovis CE11/p2xHA-glmS-gfp-bsd infected erythrocytes; type: cell-based, Babesia bovis; conditions: 50 nM trtE, 24 hours
Method: To evaluate the morphological changes in one of the intraerythrocytic parasites, B. bovis CE11/p2xHA-glmS-gfp-bsd parasites were exposed to 50 nM trtE or DMSO for 24 hours then fixed and processed for IFA. This B. bovis line expresses a soluble green fluorescent protein-blasticidin deaminase fusion protein (gfp-bsd),that was labeled with anti-GFP antibodies to visualize the parasite cytoplasm (Fig 3E, green fluorescence). […] Mis-localization of both the soluble gfp-bsd fusion protein (green label) and the RAP-1 protein (red label) was also observed. […]
For all IFAs, the investigator reading the slides and collecting images was blind to the sample treatment. […] 24 hours post treatment, infected cells were fixed with methanol, and parasites detected with rabbit anti-SAG1 antibody for T. gondii or rabbit anti-gp15 for C. parvum as we have described previously. […] This CE11 line is transiently transfected with a plasmid that expresses nanoluciferase from a B. divergens promoter and green fluorescence protein-blasticidin (gfp-bsd) from the selection cassette. […] Cells were incubated with rabbit anti-GFP (GenScript; Piscataway, NJ; cat. #A01388) and mouse monoclonal MBOC79B1 (a gift from G. Palmer) anti-BbRAP-1 protein antibodies, and reactions detected with goat anti-rabbit IgG-Alexafluor 488 and goat anti-mouse IgG-Alexafluor 594 antibodies (Invitrogen; Carlsbad, CA). […]

Babesia bovis = test: B. bovis-infected erythrocyte proliferation, SYBR green incorporation; type: cell-based; conditions: in Bos taurus, infected erythrocytes, 72 hours, read-out: EC50 against B. bovis
Method: B. bovis and B. bigemina inhibitor response assays were adapted from components of [79–81]. B. bovis and B. bigemina parasites were maintained in bovine erythrocytes under microaerophilic stationary phase conditions in vitro as described elsewhere. Prior to use in growth studies parasites were grown in erythrocytes from which leukocytes were depleted. Cultures were set up at 0.20% parasitized erythrocytes, in quadruplicate, in complete medium supplemented with trtE. Final concentration of DMSO in all cultures was 1%, and was consistent throughout. Following 72h growth under 90% nitrogen, 5% oxygen, 5% carbon dioxide cells were harvested by thorough resuspension, and transferred to a black, opaque 96-well plate. Cells were freeze-thawed at -80°C overnight, then mixed with an equal volume of SYBR Green lysis buffer. Lysis buffer was composed of 20 mM Tris, pH 7.5, 5 mM EDTA, 0.008% (w/v) saponin, 0.08% (v/v) NP40, and contained 0.2 μl 10,000x SYBR Green I dye ml^-1 (S7563; Invitrogen; Carlsbad, CA). Plates were incubated for one hour at room temperature in the dark prior to reading in a microplate reader, at 485 nm excitation and 528 nm emission wavelengths.

Sarcocystis neurona = Sarcocystis neurona GFP/Luc merozoite growth in bovine turbinate cells, luciferase expression; type: cell-based; conditions: 24 hours treatment, read-out: EC50 against S. neurona
Method: Culture of Sarcocystis neurona GFP/Luc merozoites in bovine turbinate cells and in vitro drug response assays were conducted as previously described.
A. Bovine turbinate cells infected with luciferase expressing Sarcocystis neurona merozoites were treated with trtE for 24 hours and parasite growth evaluated by luciferase expression. […] B. Theileria equi-infected erythrocytes were incubated with trtE or DMSO vehicle control and proliferation was measured after 72 hours by SYBR green incorporation. Percent proliferation was calculated relative to DMSO treated controls. […] (DOCX) Click here for additional data file.

[1] = test system: Toxoplasma gondii bradyzoites; test: Very preliminary study against T. gondii bradyzoites; type: cell-based; conditions: close to the level of toxicity for the host cells
Gram negative bacteria = conditions: at μM concentrations; cited from earlier work
[2] = Pilot pharmacokinetic study in lambs; type: in vivo
Excerpt: A full PK/PD study of trtE in mice and lambs has recently been funded, so in the near future we will be able to answer these questions.

Gram positive bacteria = conditions: at μM concentrations; cited from earlier work
[3] = test system: HCT-8 colonic cancer cells
Method: Toxicity was evaluated by measuring cellular ATP concentrations.
HCT8, HFF and BT cells were seeded in 96-well plates to achieve 20–30% confluence after 24 hours of growth.

In the case of `CC1CCC=CC=CCCC(O)CC(=O)CC2CCC(C)C3(O2)O[B-]24OC(C(=O)O1)C1(OC(CCC1C)CC(=O)CC(O)CCC=CC=CCCC(C)OC(=O)C3O2)O4` (stereo not shown) [trtE, tartrolon E], the “Morphology of trtE treated B. bovis (IFA)” value (B. bovis) is reported as “distinctly rounded morphology”, the EC50 (Babesia bovis) is reported as 15.9 nM and the EC50 (Sarcocystis neurona) is reported as 12.9 nM. For the same molecule, the “Concentration at which trtE was effective against bradyzoites” value [1] was ~ 1 µM, the “Activity of trtE against Gram negative bacteria” value (Gram negative bacteria) was “active” and the “Absorption from the intestine” value ([2]; in vivo) was “rapidly absorbed from the intestine”. The Tolerability in lambs ([2]; pilot study, lambs) was “tolerated by the animals”, the “Activity of trtE against Gram positive bacteria” value (Gram positive bacteria) was “active” and the “TC50 (median toxic concentration) for HCT-8” value ([3]; 20–30% confluency, 24 hours, cellular ATP) was 6300 nM. For the same molecule, the “Selectivity Index, C. parvum vs HCT-8” value ([3]; TC50/EC50) was 1636.
